From patent publication US8952024B2, “Herbicidal pyrimidone derivatives” (E I du Pont de Nemours and Company, priority 2009, dated 2015)

Experiments:
Experiment in all cases: Test B pre-/postemergence plant response
Format in all cases: in vivo
[1] = system: bermudagrass (Cynodon dactylon)
Outline: (§1)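 Plants treated either at seeding (loam/sand soil) or postemergence at 2 to 18 cm height, using a surfactant-containing non-phytotoxic solvent formulation. Evaluation was visual after 13 to 15 days, 0 to 100 scale relative to controls.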

[2] = system: ragweed (common ragweed, Ambrosia elatior)
Outline: as §1

[3] = system: green foxtail (Setaria viridis)
Outline: as §1

[4] = system: giant foxtail (Setaria faberii)
Outline: as §1

[5] = system: goosegrass (Eleusine indica)
Outline: as §1

[6] = system: Italian ryegrass (Lolium multiflorum)
Outline: as §1

[7] = system: morningglory (Ipomoea coccinea)
Outline: as §1

[8] = system: woolly cupgrass (Eriochloa villosa)
Outline: as §1

corn (Zea mays) = system: corn (Zea mays)
Outline: as §1

[9] = system: johnsongrass (Sorghum halepense)
Outline: as §1

[10] = system: large crabgrass (Digitaria sanguinalis)
Outline: as §1

[11] = system: yellow nutsedge (Cyperus esculentus)
Outline: as §1

[12] = system: downy bromegrass (Bromus tectorum)
Outline: as §1

[13] = Postemergence, 31 g ai/ha, 0 to 100 scale (0 no effect, 100 complete control)
[14] = Postemergence, 62 g ai/ha, scale 0 to 100 (0 no effect, 100 complete control)
[15] = Postemergence, 125 g ai/ha, scale 0 to 100 (0 no effect, 100 complete control)
[16] = Postemergence, 250 g ai/ha, scale 0 to 100 (0 no effect, 100 complete control), 13 to 15 days
[17] = 31 g ai/ha, postemergence, scale 0 to 100, 0 is no effect, 100 is complete control
[18] = 250 g ai/ha, Preemergence, 0 to 100 scale
[19] = Postemergence, 62 g ai/ha, scale 0 (no effect) to 100 (complete control), 13 to 15 days
[20] = Postemergence, 125 g ai/ha, visual rating after 13 to 15 days, scale 0 (no effect) to 100 (complete control)
[21] = Postemergence, 250 g ai/ha, scale 0 to 100 (0 no effect, 100 complete control)
[22] = Preemergence, 31 g ai/ha, scale 0 to 100 (0 no effect, 100 complete control)
[23] = Preemergence, 62 g ai/ha, scale 0 to 100 (0 no effect, 100 complete control)
[24] = Preemergence, 125 g ai/ha, scale 0 to 100, 0 no effect, 100 complete control

SMILES: COCCn1c(-c2cccc(F)c2)ncc(C(=O)C2=C(O)C3CCC(C3)C2=O)c1=O (stereo not drawn) [Compound 235]
- Plant response rating, Bermudagrass [1, 13]: 98
- Plant response rating, Bermudagrass [1, 14]: 98
- Plant response rating, Bermudagrass [1, 15]: 100
- Plant response rating, Bermudagrass [1, 16]: 100
- Plant response rating, Ragweed [2, 13]: 98
- Plant response rating, Ragweed [2, 14]: 100
- Plant response rating, Ragweed [2, 16]: 100
- Plant response rating, Foxtail, Green [3, 13]: 90
- Plant response rating, Foxtail, Green [3, 14]: 90
- Plant response rating, Foxtail, Green [3, 15]: 95
- Plant response rating, Foxtail, Green [3, 16]: 98
- Plant response rating, Foxtail, Giant [4, 13]: 98
- Plant response rating, Foxtail, Giant [4, 14]: 100
- Plant response rating, Foxtail, Giant [4, 15]: 100
- Plant response rating, Foxtail, Giant [4, 16]: 100
- Plant response rating, Goosegrass [5, 13]: 95
- Plant response rating, Goosegrass [5, 14]: 98
- Plant response rating, Goosegrass [5, 15]: 98
- Plant response rating, Goosegrass [5, 16]: 100
- Plant response rating, Ryegrass, Italian [6, 13]: 30
- Plant response rating, Ryegrass, Italian [6, 14]: 30
- Plant response rating, Ryegrass, Italian [6, 16]: 60
- Plant response rating, Morningglory [7, 13]: 95
- Plant response rating, Morningglory [7, 14]: 98
- Plant response rating, Morningglory [7, 15]: 100
- Plant response rating, Morningglory [7, 16]: 100
- Plant response rating, Cupgrass, Woolly [8, 13]: 95
- Plant response rating, Cupgrass, Woolly [8, 14]: 100
- Plant response rating, Cupgrass, Woolly [8, 15]: 100
- Plant response rating, Cupgrass, Woolly [8, 16]: 100
- Plant response rating, Corn (corn (Zea mays); [13]): 95
- Plant response rating, Corn (corn (Zea mays); [14]): 100
- Plant response rating, Corn (corn (Zea mays); [15]): 100
- Plant response rating, Corn (corn (Zea mays); [16]): 100
- Plant response rating, Johnsongrass [9, 13]: 70
- Plant response rating, Johnsongrass [9, 14]: 80
- Plant response rating, Johnsongrass [9, 15]: 100
- Plant response rating, Johnsongrass [9, 16]: 100
- Plant response rating, Crabgrass, Large [10, 13]: 98
- Plant response rating, Crabgrass, Large [10, 14]: 98
- Plant response rating, Crabgrass, Large [10, 15]: 98
- Plant response rating, Crabgrass, Large [10, 16]: 100
- Plant response rating, Nutsedge, Yellow [11, 13]: 45
- Plant response rating, Nutsedge, Yellow [11, 14]: 45
- Plant response rating, Nutsedge, Yellow [11, 15]: 55
- Plant response rating, Nutsedge, Yellow [11, 16]: 60
- Plant response rating, Bromegrass, Downy [12, 13]: 10
- Plant response rating, Bromegrass, Downy [12, 14]: 30
- Plant response rating, Bromegrass, Downy [12, 15]: 50
- Plant response rating, Bromegrass, Downy [12, 16]: 85

SMILES: O=C1CCCC(O)=C1C(=O)c1cnc(-c2cccc(Cl)c2)n(-c2ccc(Cl)cc2)c1=O [Compound 64]
- Plant response rating, Bermudagrass [1, 17]: 95
- Plant response rating, Bermudagrass [1, 18]: 98
- Plant response rating, Bermudagrass [1, 19]: 95
- Plant response rating, Bermudagrass [1, 20]: 98
- Plant response rating, Bermudagrass [1, 21]: 98
- Plant response rating, Bermudagrass [1, 22]: 50
- Plant response rating, Bermudagrass [1, 23]: 85
- Plant response rating, Bermudagrass [1, 24]: 98
- Plant response rating, Ragweed [2, 17]: 85
- Plant response rating, Ragweed [2, 19]: 85
- Plant response rating, Ragweed [2, 20]: 90
- Plant response rating, Ragweed [2, 21]: 90
- Plant response rating, Ragweed [2, 22]: 0
- Plant response rating, Ragweed [2, 23]: 50
- Plant response rating, Ragweed [2, 24]: 75
- Plant response rating, Foxtail, Green [3, 17]: 70
- Plant response rating, Foxtail, Green [3, 18]: 50
- Plant response rating, Foxtail, Green [3, 19]: 85
- Plant response rating, Foxtail, Green [3, 20]: 100
- Plant response rating, Foxtail, Green [3, 21]: 100
- Plant response rating, Foxtail, Green [3, 22]: 0
- Plant response rating, Foxtail, Green [3, 23]: 0
- Plant response rating, Foxtail, Green [3, 24]: 0
- Plant response rating, Foxtail, Giant [4, 17]: 90
- Plant response rating, Foxtail, Giant [4, 18]: 65
- Plant response rating, Foxtail, Giant [4, 19]: 95
- Plant response rating, Foxtail, Giant [4, 20]: 98
- Plant response rating, Foxtail, Giant [4, 21]: 100
- Plant response rating, Foxtail, Giant [4, 22]: 20
- Plant response rating, Foxtail, Giant [4, 23]: 25
- Plant response rating, Foxtail, Giant [4, 24]: 35
- Plant response rating, Goosegrass [5, 17]: 80
- Plant response rating, Goosegrass [5, 18]: 100
- Plant response rating, Goosegrass [5, 19]: 80
- Plant response rating, Goosegrass [5, 20]: 85
- Plant response rating, Goosegrass [5, 21]: 90
- Plant response rating, Goosegrass [5, 22]: 30
- Plant response rating, Goosegrass [5, 23]: 40
- Plant response rating, Goosegrass [5, 24]: 98
- Plant response rating, Ryegrass, Italian [6, 17]: 0
- Plant response rating, Ryegrass, Italian [6, 19]: 0
- Plant response rating, Ryegrass, Italian [6, 20]: 0
- Plant response rating, Ryegrass, Italian [6, 21]: 30
- Plant response rating, Ryegrass, Italian [6, 22]: 0
- Plant response rating, Ryegrass, Italian [6, 23]: 0
- Plant response rating, Ryegrass, Italian [6, 24]: 0
- Plant response rating, Morningglory [7, 17]: 80
- Plant response rating, Morningglory [7, 19]: 80
- Plant response rating, Morningglory [7, 20]: 85
- Plant response rating, Morningglory [7, 21]: 90
- Plant response rating, Morningglory [7, 22]: 0
- Plant response rating, Morningglory [7, 23]: 0
- Plant response rating, Morningglory [7, 24]: 0
- Plant response rating, Cupgrass, Woolly [8, 17]: 75
- Plant response rating, Cupgrass, Woolly [8, 18]: 10
- Plant response rating, Cupgrass, Woolly [8, 19]: 95
- Plant response rating, Cupgrass, Woolly [8, 20]: 98
- Plant response rating, Cupgrass, Woolly [8, 21]: 98
- Plant response rating, Cupgrass, Woolly [8, 22]: 0
- Plant response rating, Cupgrass, Woolly [8, 23]: 0
- Plant response rating, Cupgrass, Woolly [8, 24]: 0
- Plant response rating, Corn (corn (Zea mays); [17]): 80
- Plant response rating, Corn (corn (Zea mays); [18]): 0
- Plant response rating, Corn (corn (Zea mays); [19]): 85
- Plant response rating, Corn (corn (Zea mays); [20]): 85
- Plant response rating, Corn (corn (Zea mays); [21]): 90
- Plant response rating, Corn (corn (Zea mays); [22]): 0
- Plant response rating, Corn (corn (Zea mays); [23]): 0
- Plant response rating, Corn (corn (Zea mays); [24]): 0
- Plant response rating, Johnsongrass [9, 17]: 90
- Plant response rating, Johnsongrass [9, 18]: 75
- Plant response rating, Johnsongrass [9, 19]: 98
- Plant response rating, Johnsongrass [9, 20]: 100
- Plant response rating, Johnsongrass [9, 21]: 100
- Plant response rating, Johnsongrass [9, 22]: 0
- Plant response rating, Johnsongrass [9, 23]: 0
- Plant response rating, Johnsongrass [9, 24]: 55
- Plant response rating, Crabgrass, Large [10, 17]: 85
- Plant response rating, Crabgrass, Large [10, 18]: 98
- Plant response rating, Crabgrass, Large [10, 19]: 90
- Plant response rating, Crabgrass, Large [10, 20]: 98
- Plant response rating, Crabgrass, Large [10, 21]: 98
- Plant response rating, Crabgrass, Large [10, 22]: 50
- Plant response rating, Crabgrass, Large [10, 23]: 75
- Plant response rating, Crabgrass, Large [10, 24]: 98
- Plant response rating, Nutsedge, Yellow [11, 17]: 0
- Plant response rating, Nutsedge, Yellow [11, 19]: 10
- Plant response rating, Nutsedge, Yellow [11, 20]: 10
- Plant response rating, Nutsedge, Yellow [11, 21]: 25
- Plant response rating, Nutsedge, Yellow [11, 22]: 0
- Plant response rating, Nutsedge, Yellow [11, 23]: 0
- Plant response rating, Nutsedge, Yellow [11, 24]: 0
- Plant response rating, Bromegrass, Downy [12, 17]: 25
- Plant response rating, Bromegrass, Downy [12, 18]: 0
- Plant response rating, Bromegrass, Downy [12, 19]: 45
- Plant response rating, Bromegrass, Downy [12, 20]: 60
- Plant response rating, Bromegrass, Downy [12, 21]: 85
- Plant response rating, Bromegrass, Downy [12, 22]: 0
- Plant response rating, Bromegrass, Downy [12, 23]: 0
- Plant response rating, Bromegrass, Downy [12, 24]: 0
